In patent US20170216252A1, “ANTI-BACTERIAL PYRUVATE KINASE MODULATOR COMPOUNDS, COMPOSITIONS, USES AND METHODS” (SIMON FRASER UNIVERSITY, priority 2014, published 2017) one finds inhibition, MIC and IC50 data, which are given here for 27 compounds.

≈ marks a conversion by molar mass, not a printed value. Where two headings read alike, the source gives them in different places. Some results are limits rather than exact numbers.

In one experiment the target is T1, MRSA PK (Staphylococcus aureus, UniProt Q6GG09).
T1 construct: His tag (pET-28a(+) vector) (N); made in house; host or cells: E. coli BL-21 (DE3)
The experiment in a line: MRSA PK activity, continuous LDH-coupled assay. Format: biochemical, S. aureus (MRSA strain Sanger 252). As to conditions: for inhibition at 10 µM: read-out: % inhibition at the highest concentration tested (IC50). From the text:
Genomic DNA of MRSA strain Sanger 252 extracted using DNeasy Tissue Kit™ (Qiagen™) was used as a template to generate the His-tagged MRSA PK. Human cDNA from MCF-7 breast cancer cell line (courtesy of Dr. J Wong, BC Cancer Research Center (Vancouver, Canada) was used as a template to generate the full-length human M2 PK enzyme. The following primer sets were used creating appropriate restriction sites (NdeI and XhoI sites underlined): For cloning of MRSA PK: M27F 5′-[…]-3′ and M27R 5′-[…]-3′, for cloning of human M2 PK isoform: hM2F 5′-[…]-3′ and hM2R 5′-[…]-3′. The resulting PCR fragments for each construct were cloned into the NdeI and XhoI unique sites of the bacterial expression vector pET-28a (+) (Novagen™). […] The sequence and the correct reading frame of all constructs were verified by sequencing. Human M1, R and L PK constructs in pET-28-a(+) vectors (courtesy of Dr. L. Cantley, Harvard Medical, School (Boston, USA)) were used to generate relevant recombinant His-tagged human PK isoforms.
MRSA and human constructs in pET-28a(+) were used to express relevant recombinant PK proteins in E. coli BL-21 (DE3). The proteins were expressed and purified using Ni-NTA agarose (Qiagen™) according to the manufacturer's protocol. Briefly, cells were grown to an absorbance of 0.4-0.5 at 600 nm in 2×YT medium, then induced with 0.1 mM IPTG for 3 h at 20° C. Cells were lysed by sonication on ice (3×10-s bursts with a 30-s recovery between bursts) in lysis buffer (0.2 mg/ml lysozyme, 50 mM Tris pH 7.5, 10 mM MgCl2, 200 mM NaCl, 100 mM KCl, 10% glycerol, 10 mM imidazole, 0.5% NP-40 and 1 mM DTT containing Complete™ protease inhibitor). Cell lysates were cleared by centrifugation (18,000×g in a Beckman™ JA-20 rotor) for 20 min at 4° C. and PK isoforms were purified by batch binding to Ni-NTA resin. The resins were then packed in columns (1×2 cm) and washed with 400 column volumes lysis buffer containing 30 mM imidazole. His-tagged PK isoforms were eluted with the same buffer containing 300 mM imidazole. The proteins were dialyzed overnight at 4° C. against 2000 volumes of ice-cold 30 mM Tris pH 7.5, 25 mM KCl, 5 mM MgCl2, 10% glycerol and 1 mM DTT to remove imidazole. All purification steps were done at 4° C.; enzymes were flash-frozen and stored at −70° C. […] Purity and physical integrity of proteins were assessed using SDS-polyacrylamide gel electrophoresis (SDS-PAGE) followed by coomassie blue staining. Protein concentration was estimated by Bradford assay (Bio-Rad Protein Assay™) using bovine serum albumin as a standard.
Candidate MRSA PK inhibitors were assayed for their ability to inhibit enzymatic activities of MRSA and human PKs. PK activity was determined using a continuous assay coupled to lactate dehydrogenase (LDH) in which the change in absorbance at 340 nm owing to oxidation of NADH was measured using a Benchmark Plus™ microplate spectrophotometer (Bio-Rad Laboratories, Hercules, Calif.). […] Reactions were initiated by the addition of 15 nM of one of the PK enzymes. PK activity proportional to the rate of change at 340 nm was expressed as specific activity (μmol/min/mg), which is defined as the amount of PK that catalyzes the formation of one micromole of either product per minute. Inhibitors were dissolved in DMSO with the final concentration of the solvent never exceeding 1% of the assay volume. IC50 values were calculated by curve fitting on a four-parameter dose-response model with variable slope using Graphpad Prism 5.0™ (GraphPad™ Software Inc., La Jolla, Calif.). […] Reactions were performed at 30° C. for up to 5 min. All values determined represent at least two measurements, in triplicate (Tables 1-6) or duplicate unless mentioned otherwise.

The next experiment relates to S. aureus ATCC 29213. As to the kind of experiment: In vitro susceptibility, broth microdilution MIC. Format: cell-based, Staphylococcus aureus. As to conditions: Staphylococcus aureus, ATCC29213, Tables 1-6 and text; minimum concentration to give >98% inhibition of growth; read-out: MIC. On the procedure: The antimicrobial activities of PK inhibitor candidates were determined using the 96-well microtiter standard 2-fold serial broth microdilution method as described by CLSI (formerly NCCLS) with the various gram-positive and gram-negative bacteria species mentioned above. Bacteria from a single colony were grown, overnight in either BHI Broth (VRE), mueller hinton broth (S. aureus 29213; MRSA USA400) or L-broth (E. coli, P. aeruginosa, S. typhimuriu, K. Pneumonia and A. baumannii). […] Culture plates were incubated for 18-24 h at 37° C., and optical density at 600 nm (OD600) was measured using a Benchmark Plus™ microplate spectrophotometer (Bio-Rad™). The absorbance control values for the series containing CAMHB and inhibitor were subtracted as background from the corresponding infected wells. The MIC was defined as the lowest concentration of test compound leading to complete inhibition of cell growth in relationship to compound-free control wells as determined by optical density. […] All assays were run in triplicate (Tables 1-6) or duplicate. Experiments were replicated at least twice to verify reproducibility using the above conditions.

Setting [1] is: Tables 1-6, 2 mM ADP, 10 mM PEP, 15 nM PK, read-out: IC50.

T1 sequence (Q6GG09 whole entry): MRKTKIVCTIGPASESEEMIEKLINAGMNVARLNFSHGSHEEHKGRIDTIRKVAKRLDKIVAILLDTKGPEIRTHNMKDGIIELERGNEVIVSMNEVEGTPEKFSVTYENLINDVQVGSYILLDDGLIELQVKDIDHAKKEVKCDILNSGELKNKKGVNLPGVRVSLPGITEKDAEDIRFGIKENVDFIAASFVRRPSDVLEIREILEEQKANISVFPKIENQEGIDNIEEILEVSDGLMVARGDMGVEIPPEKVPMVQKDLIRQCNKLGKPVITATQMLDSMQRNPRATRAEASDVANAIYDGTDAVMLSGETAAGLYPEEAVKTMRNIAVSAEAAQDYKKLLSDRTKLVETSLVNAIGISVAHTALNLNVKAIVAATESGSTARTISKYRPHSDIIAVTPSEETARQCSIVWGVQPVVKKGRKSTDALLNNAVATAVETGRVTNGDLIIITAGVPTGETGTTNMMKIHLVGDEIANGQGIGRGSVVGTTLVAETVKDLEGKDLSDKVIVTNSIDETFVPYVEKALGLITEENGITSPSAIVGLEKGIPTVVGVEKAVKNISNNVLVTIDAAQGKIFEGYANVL

By MIC is commonly meant the lowest concentration that inhibits growth of the organism. As for `Cn1c(C#Cc2cc3cc(Br)ccc3[nH]2)cc2cc(Br)ccc21` [Compound 48, 5-Bromo-2-((5-bromo-1H-indol-2-yl)ethynyl)-1-methyl-1H-indole], the inhibition at 10 µM on MRSA PK amounted to 60%. The MIC in the experiment with S. aureus ATCC 29213 is greater than 64 mg/L.
Taken in the same sequence, the figures for `Brc1ccc2cc(-c3ccc(-c4cc5ccc(Br)cc5[nH]4)nn3)[nH]c2c1` [Compound 49, 3,6-bis(6-Bromo-1H-indol-2-yl)pyridazine] were 70% and greater than 32 mg/L.
Taken in the same sequence, the figures for `O=C(Nc1nc2cc(Br)ccc2s1)c1cc(Br)ccc1O` [Compound 50, 5-Bromo-N-(5-bromobenzo[d]thiazol-2-yl)-2-hydroxybenzamide] were 60% and greater than 64 mg/L.
A word on the IC50: it is the concentration that gives 50% inhibition. In the case of `O=C(Nc1nc2ccc(Br)cc2s1)c1cc(Br)ccc1O` [Compound 51, 5-Bromo-N-(6-bromobenzo[d]thiazol-2-yl)-2-hydroxybenzamide], the IC50 on MRSA PK (setting [1]) was determined as 0.003 µM. Moreover, the MIC in the experiment with S. aureus ATCC 29213 was greater than 64 mg/L.
As to `O=C(Nc1ccc(Br)cc1)c1cc2ccccc2[nH]1` [Compound 52], the inhibition at 10 µM at MRSA PK came out at 67%. Further, in the experiment with S. aureus ATCC 29213, the MIC is greater than 32 mg/L.
With `O=C(Nc1nc2cc(Br)ccc2s1)c1cc2ccccc2[nH]1` [Compound 53, N-(5-Bromobenzo[d]thiazol-2-yl)-1H-indole-2-carboxamide], the IC50 at MRSA PK (setting [1]) amounted to 0.0509 µM. The MIC in the experiment with S. aureus ATCC 29213 was greater than 64 mg/L.
Taken in the same sequence, the figures for `O=C(Nc1nc2ccc(Br)cc2s1)c1cc2ccccc2[nH]1` [Compound 54, N-(6-Bromobenzo[d]thiazol-2-yl)-1H-indole-2-carboxamide] were 0.0111 µM and greater than 64 mg/L.
On MRSA PK, `Brc1ccc(-c2cc3ccc(Br)cc3[nH]2)cc1` [Compound 55, 6-bromo-2-(4-bromophenyl)-1H-indole] displayed an IC50 of 0.0569 µM. Further, the MIC with S. aureus ATCC 29213 is greater than 64 mg/L.
As for `O=C(Nc1nc2ccccc2s1)c1cc(Br)ccc1O` [Compound 56], the inhibition at 10 µM at MRSA PK was 76%. Moreover, the MIC with S. aureus ATCC 29213 is greater than 64 mg/L.
`Brc1ccc(-c2c[nH]c3cc(Br)ccc23)cc1` [Compound 57, 6-bromo-3-(4-bromophenyl)-1H-indole]: the IC50 at MRSA PK (setting [1]) was determined as 0.102 µM. The MIC in the experiment on S. aureus ATCC 29213 was 2 mg/L (≈ 5.7 µM).
As for `Oc1ccc(Br)cc1/C=N/c1nc2ccc(Br)cc2s1` [Compound 58], the inhibition at 10 µM on MRSA PK was found to be 77%. The MIC with S. aureus ATCC 29213 amounted to 64 mg/L (≈ 155 µM).
In the case of `Brc1ccc(-c2cccc(-c3cc4ccccc4[nH]3)c2)cc1` [Compound 59, 2-(4′-Bromo-[1,1′-biphenyl]-3-yl)-1H-indole], the inhibition at 10 µM at MRSA PK is 54%. The MIC in the experiment on S. aureus ATCC 29213 is greater than 64 mg/L.
On to `Brc1ccc(-c2cncc(-c3cc4ccccc4[nH]3)n2)cc1` [Compound 60, 2-(6-(4-Bromophenyl)pyrazin-2-yl)-1H-indole], for which the inhibition at 10 µM on MRSA PK is 79%. Also, the MIC in the experiment with S. aureus ATCC 29213 was greater than 64 mg/L.
`Brc1ccc(-c2ccc(-c3cncc(-c4cc5ccccc5[nH]4)n3)cc2)cc1` [Compound 61, 2-(6-(4′-Bromo-[1,1′-biphenyl]-4-yl)pyrazin-2-yl)-1H-indole]: the inhibition at 0.1 µM on MRSA PK (read-out: % inhibition (IC50)) stood at 61%. Further, the MIC with S. aureus ATCC 29213 is greater than 64 mg/L.
As for `O=C(Nc1cc(Br)ccc1O)c1cc2ccc(Br)cc2[nH]1` [Compound 62, 6-Bromo-N-(5-bromo-2-hydroxyphenyl)-1H-indole-2-carboxamide], on MRSA PK, the IC50 was 0.0123 µM. Besides, in the experiment on S. aureus ATCC 29213, the minimal inhibitory concentration (MIC) was greater than 64 mg/L.
In the same order, the values of `O=C(Nc1ccc(Br)cc1)c1cc2ccc(Br)cc2[nH]1` [Compound 63, 6-Bromo-N-(4-bromophenyl)-1H-indole-2-carboxamide] are 0.0097 µM and greater than 64 mg/L.
Take `O=C(Nc1cccc(Br)c1O)c1cc2ccc(Br)cc2[nH]1` [Compound 64, 6-Bromo-N-(3-bromo-2-hydroxyphenyl)-1H-indole-2-carboxamide]: the IC50 on MRSA PK (setting [1]) is 0.116 µM. The MIC in the experiment with S. aureus ATCC 29213 was greater than 64 mg/L.
On to `O=C1c2ccc(Br)cc2C(=O)N1c1nc2ccc(Br)cc2s1` [Compound 65, 5-bromo-2-(6-bromobenzo[d]thiazol-2-yl)isoindoline-1,3-dione], for which, at MRSA PK, the inhibition at 10 µM is 76%. Also, the MIC in the experiment on S. aureus ATCC 29213 was greater than 64 mg/L.
Taken in the same sequence, the figures for `O=C(Nc1nc2ccc(Br)cc2s1)c1ccccc1O` [Compound 66] were 59% and greater than 64 mg/L.
For the compound `O=C(Nc1nc2ccc(Br)cc2s1)c1ccc(Br)cc1O` [Compound 67, 4-Bromo-N-(6-bromobenzo[d]thiazol-2-yl)-2-hydroxybenzamide], at MRSA PK (setting [1]), the IC50 came out at 0.214 µM. Also, the MIC in the experiment on S. aureus ATCC 29213 is greater than 64 mg/L.
`COc1ccc(Br)cc1C(=O)Nc1nc2ccc(Br)cc2s1` [Compound 68, 5-Bromo-N-(6-bromobenzo[d]thiazol-2-yl)-2-methoxybenzamide] displayed an IC50 on MRSA PK of 0.0083 µM. In addition, the MIC in the experiment on S. aureus ATCC 29213 was greater than 64 mg/L.
In the case of `Cn1c(C(=O)Nc2nc3ccc(Br)cc3s2)cc2ccccc21` [Compound 69, N-(6-Bromobenzo[d]thiazol-2-yl)-1-methyl-1H-indole-2-carboxamide], on MRSA PK, the inhibition at 10 µM turned out to be 61%. Further, the MIC in the experiment with S. aureus ATCC 29213 is greater than 64 mg/L.
On to `O=C(Nc1nc2ccc(Br)cc2s1)c1cccc(Br)c1O` [Compound 70, 3-Bromo-N-(6-bromobenzo[d]thiazol-2-yl)-2-hydroxybenzamide], for which the IC50 on MRSA PK (setting [1]) turned out to be 0.0429 µM. The MIC in the experiment on S. aureus ATCC 29213 stood at 4 mg/L (≈ 9.34 µM).
With `O=C(Nc1ccc(Br)cc1)c1cc2ccc(Br)cc2s1` [Compound 71, 6-bromo-N-(4-bromophenyl)benzo[b]thiophene-2-carboxamide], the inhibition at 10 µM on MRSA PK stood at 55%. In the experiment with S. aureus ATCC 29213, the MIC was greater than 64 mg/L.
`O=C(Nc1nc2cc(Br)ccc2s1)c1cc2cc(Br)ccc2[nH]1` [Compound 77, 5-Bromo-N-(5-bromobenzo[d]thiazol-2-yl)-1H-indole-2-carboxamide] yielded an IC50 at MRSA PK of 0.0082 µM. For the same compound, the MIC in the experiment with S. aureus ATCC 29213 is greater than 64 mg/L.
In the same order, the values of `O=C(Nc1nc2ccc(Br)cc2[nH]1)c1cc(Br)ccc1O` [Compound 78, 5-Bromo-N-(6-bromo-1H-benzo[d]imidazol-2-yl)-2-hydroxybenzamide] are 0.0113 µM and 4 mg/L (≈ 9.73 µM).
Turning to `O=C(Nc1nc2ccc(Br)cc2[nH]1)c1cc2cc(Br)ccc2[nH]1` [Compound 79, 5-bromo-N-(6-bromo-1H-benzo[d]imidazol-2-yl)-1H-indole-2-carboxamide], the IC50 against MRSA PK amounted to 0.0035 µM. Also, in the experiment with S. aureus ATCC 29213, the MIC is greater than 64 mg/L.
